Results published in ChEMBL document CHEMBL1221197, “Selective inhibitors of death in mutant huntingtin cells” (Nat Chem Biol, 2007).
Calls of active or inactive are those of the source. No cut-off for these calls is given here.

What was measured:
[1] = Inhibition of human huntingtin N548 mutant expressed in rat ST14A cells assessed as decrease in cell death; type: cell-based
[2] = system: neuronal; test: Inhibition of huntingtin mutant in Caenorhabditis elegans ASH neuronal cell Huntington disease model assessed as cell viability; type: cell-based
[3] = Inhibition of human huntingtin Q103 mutant expressed in rat PC12 cells assessed as decrease in cell death; type: cell-based, PC-12
[4] = system: Saccharomyces cerevisiae; test: Inhibition of huntingtin in Saccharomyces cerevisiae coexpressing exon 1 fragments with polyQ region Huntington disease (HD) model assessed as increase in cell viability
[5] = Cytotoxicity against rat ST14A cells transfected with human htt gene; type: cell-based; conditions: read-out: TC50 (the source's name)
[6] = system: PC-12; test: Inhibition of human huntingtin Q103 mutant expressed in rat PC12 cells assessed as decrease in cell death relative to control; type: cell-based; set-up: concentration or dose not given beside the values
[7] = system: ST14A; test: Inhibition of apoptosis in rat ST14A cells transfected with human htt gene assessed as inhibition of caspase 3 cleavage by Western blot method; type: functional, cell-based
[8] = system: Brain; test: Inhibition of medium spiny neuron degeneration in rat brain slice Huntington disease (HD) model after 4 days; type: functional, tissue-based
[9] = system: ST14A; test: Inhibition of apoptosis in rat ST14A cells transfected with human htt gene assessed as inhibition of caspase 7 cleavage by Western blot method; type: functional, cell-based
[10] = system: ST14A; test: Inhibition of rat ST14A cell death assessed as inhibition of cell death at 50 uM after 6 hrs by fluorimetry; type: functional, cell-based
[11] = system: ST14A; test: Inhibition of rat ST14A cell death expressing human huntingtin N548 mutant assessed as inhibition of cell death at 50 uM after 6 hrs by fluorimetry; type: functional, cell-based
[12] = system: ST14A; test: Inhibition of cell death in rat ST14A cells assessed as cell viability; type: functional, cell-based

Row | SMILES | EC50 [1] | inhibition [2] | EC50 ([3]; pc-12) | inhibition [4] | CC50 [5] | EC50 ([3]; PC-12, read-out: EC50) | inhibition [6] | INH [2] | inhibition [7] | inhibition [8] | inhibition [9] | inhibition [10] | inhibition [11] | inhibition [12]
1 | CCOC(=O)c1cccc(NS(=O)(=O)c2ccc(OC)cc2)c1 | 15 µM | inactive | Not Active | inactive | 119 µM | – | – | – | – | – | – | – | – | –
2 | CC(C)CC(NC(=O)OCc1ccccc1)C(=O)Oc1ccc2c(=O)c(-c3ccc([N+](=O)[O-])cc3)coc2c1 (stereo not drawn) | 8 µM | inactive | Not Active | inactive | 38 µM | – | – | – | – | – | – | – | – | –
3 | CCCCCCCCC(=O)N(Cc1ccco1)C(C)c1nc2ccccc2c(=O)n1-c1cc(C)ccc1C (stereo not drawn) | 2 µM | inactive | – | inactive | 39 µM | 50 µM | 25% | – | – | – | – | – | – | –
4 | NNc1nnc(-c2ccccc2)c2ccccc12 | 5 µM | inactive | – | inactive | 102 µM | 8 µM | 18% | – | – | – | – | – | – | –
5 | COc1c2c(cc3c1C(CC(=O)/C=C/c1ccco1)[N+](C)(C)CC3)OCO2 (stereo not drawn) | 9 µM | – | – | inactive | 80 µM | 22 µM | 34% | 2.2 mM | Active | inactive | inactive | – | – | –
6 | CC1=NN(C(N)=S)C(=O)/C1=N/Nc1ccccc1C(F)(F)F | 7 µM | inactive | Not Active | inactive | 49 µM | – | – | – | – | – | – | – | – | –
7 | CCCCc1ccc(C(=O)N(CCC(=O)N2CCC(Cc3ccccc3)CC2)Cc2ccco2)cc1 | 5 µM | inactive | – | inactive | 41 µM | 60 µM | 27% | – | – | – | – | – | – | –
8 | CC(C)C1=CCC2C(=C1)CCC1[C@@]2(C)CCC[C@]1(C)C(=O)O (stereo partly drawn) | 7 µM | inactive | Not Active | inactive | 53 µM | – | – | – | – | – | – | – | – | –
9 | CCCN1C(=O)C(=O)c2cc(C)ccc21 | 5 µM | inactive | Not Active | inactive | 98 µM | – | – | – | – | – | – | – | – | –
10 | Cc1nc2c(O)c(Br)ccn2c(=O)c1Br | 2 µM | inactive | Not Active | inactive | 24 µM | – | – | – | – | – | – | – | – | –
11 | CCC1CN2CCc3cc(OC)c(OC)cc3C2CC1CC1c2cc(OC)c(OC)cc2CCN1C(=O)c1ccco1 (stereo not drawn) | 6 µM | inactive | Not Active | inactive | 42 µM | – | – | – | – | – | – | – | – | –
12 | CC1(C)C(C=C(Cl)Cl)C1C(=O)C1=C(O)CCCC1=O (stereo not drawn) | 10 µM | inactive | Not Active | inactive | 79 µM | – | – | – | – | – | – | – | – | –
13 | COC1=CC2C(=O)C(=O)N3C2C(=C1)[C@H](C)CC3(C)C (stereo partly drawn) | 16 µM | inactive | Not Active | inactive | 77 µM | – | – | – | – | – | – | – | – | –
14 | COc1ccc(C(CCN(CC2CCOC(C)(C)C2)C(C)=O)c2ccccc2)cc1 (stereo not drawn) | 10 µM | inactive | Not Active | inactive | 49 µM | – | – | – | – | – | – | – | – | –
15 | COc1ccccc1C(CCN(C(C)=O)C(C)c1ccccc1)C1CCC(C)(C)OC1 (stereo not drawn) | 5 µM | inactive | Not Active | inactive | 47 µM | – | – | – | – | – | – | – | – | –
16 | COC(=O)C[C@H](NC(=O)OC(C)(C)C)C(=O)CF | – | – | – | – | – | – | – | – | – | – | – | Dose-dependent effect | Dose-dependent effect | –
17 | CC1=NC(Nc2nc(C)c3cc(C)c(C)cc3n2)=NC(C)(C)C1 | 7 µM | inactive | Not Active | inactive | 32 µM | – | – | – | – | – | – | – | – | –
18 | COc1ccc(CN(CCC2(c3ccccc3)CCOC(C)(C)C2)C(=O)c2ccco2)cc1OC (stereo not drawn) | 5 µM | inactive | Not Active | inactive | 50 µM | – | – | – | – | – | – | – | – | –
19 | O=c1[nH]c2c(c(=O)[nH]1)C(c1cccc([N+](=O)[O-])c1)C=C(c1ccccc1)O2 (stereo not drawn) | 3 µM | inactive | Not Active | inactive | 110 µM | – | – | – | – | – | – | – | – | –
20 | CCCc1cc(OC(=O)c2ccccc2F)n(-c2cccc(F)c2)n1 | 12 µM | – | – | inactive | 235 µM | 145 µM | 21% | 3 mM | Active | Active | inactive | – | – | inactive
21 | O=C(Cc1cccs1)/C(=N/NC(=O)c1cccc(Br)c1)C(F)(F)F | 5 µM | inactive | Not Active | inactive | 48 µM | – | – | – | – | – | – | – | – | inactive
22 | CCCCCCN(C(=O)CCCC)C(C)c1nc2ccccc2c(=O)n1-c1ccccc1OC (stereo not drawn) | 9 µM | inactive | Not Active | inactive | 26 µM | – | – | – | – | – | – | – | – | –
23 | CC1CN(C(C)c2nc3ccccc3c(=O)n2-c2ccc(F)cc2)CCC1C(=O)C1CC1 (stereo not drawn) | 5 µM | inactive | Not Active | inactive | 37 µM | – | – | – | – | – | – | – | – | –
24 | CCCCCCCCCC(=O)Oc1cc(-c2ccccc2)nn1-c1cccc(C)c1 | 10 µM | inactive | – | inactive | 75 µM | 100 µM | 23% | – | – | inactive | – | – | – | –
25 | CCCc1cc(OC(=O)C(CC)c2ccccc2)n(-c2cccc(F)c2)n1 (stereo not drawn) | 11 µM | inactive | Not Active | inactive | 218 µM | – | – | – | – | Active | – | – | – | –
26 | Oc1ccc2c(c1)CC1NCCc3cc(O)c(O)c-2c31 (stereo not drawn) | 15 µM | inactive | Not Active | inactive | 74 µM | – | – | – | – | – | – | – | – | –
27 | COc1cc2c(cc1OC)C(C)N(C(=O)NCc1ccccc1)CC2 (stereo not drawn) | 3 µM | inactive | Not Active | inactive | 47 µM | – | – | – | – | – | – | – | – | –
28 | CCCc1ccc(CC2=C(O)C(=O)c3ccccc3C2=O)cc1 | 7 µM | inactive | Not Active | inactive | 65 µM | – | – | – | – | – | – | – | – | –
29 | Cc1ccc(-c2nc(NS(=O)(=O)c3ccc(Cl)cc3)sc2C)cc1 | 11 µM | inactive | Not Active | inactive | 42 µM | – | – | – | – | – | – | – | – | –
30 | CC(=O)N(C1=C(N(C)C)C(=O)c2ccccc2C1=O)c1ccc(Br)cc1 | 5 µM | inactive | Not Active | inactive | 29 µM | – | – | – | – | – | – | – | – | –
